Consider 29 compounds from patent US10189838B2, “Aza-oxo-indoles for the treatment and prophylaxis of respiratory syncytial virus infection” (Hoffmann-La Roche Inc., priority 2013, dated 2019).

pEC50: −log10 of the molar value.

The test relates to RSV Long strain. The test is described as follows: Viral cytopathic effect (CPE) assay, RSV Long strain. Format: cell-based, Respiratory Syncytial Virus. Particulars: human respiratory syncytial virus, 144 h, cell viability after 6 days (Cell Counting kit-8). The method, then:
EC50: the concentration of a compound where 50% of its maximal protection effect against viral induced CPE is observed
LongStrain: an A subtype RSV strain obtained from ATCC with catalog number VR-26
To measure anti-RSV activity of compounds, 96-well plates are seeded with 6×10^3 cells per well in Dulbecco's modified Eagle's medium (DMEM) containing 10% fetal bovine serum (FBS). Cells are infected the next day with sufficient RSV Long strain (ATCC) to produce an approximately 80-90% cytopathic effect after 6 days, in the presence of serial half-log diluted compound in a total volume of […] per well. The viability of cells is assessed after 6 days using Cell Counting kit-8 (Dojindo Molecular Technologies). The absorbance at 450 nm and referenced at 630 nm is measured to determine 50% effective concentration (EC50)
Regarding `CS(=O)(=O)CCn1c(CN2C(=O)C3(CC3)c3ccncc32)cc2ccccc21` [Example 1-1, 1′-({1-[2-(Methylsulfonyl)ethyl]-1H-indol-2-yl}methyl)spiro[cyclopropane-1,3′-pyrrolo[2,3-c]pyridin]-2′(1′H)-one], the negative logarithm of the EC50 (pEC50) is 6.66.

In turn, `COc1ccc2c(c1)cc(CN1C(=O)C3(CC3)c3ccncc31)n2CCS(C)(=O)=O` [Example 1-2, 1′-({5-Methoxy-1-[2-(methylsulfonyl)ethyl]-1H-indol-2-yl}methyl)spiro[cyclopropane-1,3′-pyrrolo[2,3-c]pyridin]-2′(1′H)-one] had a pEC50 of 7.13.

Take `CS(=O)(=O)CCn1c(CN2C(=O)C3(CC3)c3ccncc32)cc2cc(C#N)ccc21` [Example 1-3, 1-[2-(Methylsulfonyl)ethyl]-2-[(2′-oxospiro[cyclopropane-1,3′-pyrrolo[2,3-c]pyridin]-1′(2′H)-yl)methyl]-1H-indole-5-carbonitrile]: the pEC50 is 6.03.

Compound `CS(=O)(=O)CCn1c(CN2C(=O)C3(CC3)c3ccncc32)cc2cc(F)ccc21` [Example 1-4, 1′-({5-Fluoro-1-[2-(methylsulfonyl)ethyl]-1H-indol-2-yl}methyl)spiro[cyclopropane-1,3′-pyrrolo[2,3-c]pyridin]-2′(1′H)-one] had a negative-log EC50 (pEC50) of 6.72.

The compound `CS(=O)(=O)CCn1c(CN2C(=O)C3(CC3)c3ccncc32)cc2cc(Br)ccc21` [Example 1-5, 1′-({5-Bromo-1-[2-(methylsulfonyl)ethyl]-1H-indol-2-yl}methyl)spiro[cyclopropane-1,3′-pyrrolo[2,3-c]pyridin]-2′(1′H)-one] showed a pEC50 of 7.85.

`CS(=O)(=O)CCn1c(CN2C(=O)C3(CC3)c3ccncc32)cc2c(Cl)cccc21` [Example 1-6, 1′-({4-Chloro-1-[2-(methylsulfonyl)ethyl]-1H-indol-2-yl}methyl)spiro[cyclopropane-1,3′-pyrrolo[2,3-c]pyridin]-2′(1′H)-one] gave a negative logarithm of the EC50 (pEC50) of 5.78.

With `CS(=O)(=O)CCn1c(CN2C(=O)C3(CC3)c3ccncc32)cc2cccc(Cl)c21` [Example 1-7, 1′-({7-Chloro-1-[2-(methylsulfonyl)ethyl]-1H-indol-2-yl}methyl)spiro[cyclopropane-1,3′-pyrrolo[2,3-c]pyridin]-2′(1′H)-one], the negative logarithm of the EC50 (pEC50) was 6.79.

`CCc1ccc2c(c1)cc(CN1C(=O)C3(CC3)c3ccncc31)n2CCS(C)(=O)=O` [Example 1-8, 1′-({5-Ethyl-1-[2-(methylsulfonyl)ethyl]-1H-indol-2-yl}methyl)spiro[cyclopropane-1,3′-pyrrolo[2,3-c]pyridin]-2′(1′H)-one]: the pEC50 is 6.66.

For the compound `CS(=O)(=O)CCn1c(CN2C(=O)C3(CC3)c3ccncc32)cc2cc(F)cc(F)c21` [Example 1-9, 1′-({5,7-Difluoro-1-[2-(methylsulfonyl)ethyl]-1H-indol-2-yl}methyl)spiro[cyclopropane-1,3′-pyrrolo[2,3-c]pyridin]-2′(1′H)-one], the pEC50 is 7.62.

The compound `CS(=O)(=O)CCn1c(CN2C(=O)C3(CC3)c3ccncc32)cc2cc(C(F)(F)F)ccc21` [Example 1-10, 1′-({1-[2-(Methylsulfonyl)ethyl]-5-(trifluoromethyl)-1H-indol-2-yl}methyl)spiro[cyclopropane-1,3′-pyrrolo[2,3-c]pyridin]-2′(1′H)-one] had a pEC50 of 6.25.

As to `CS(=O)(=O)CCn1c(CN2C(=O)C3(CC3)c3ccncc32)cc2cc(F)c(F)cc21` [Example 1-11, 1′-({5,6-Difluoro-1-[2-(methylsulfonyl)ethyl]-1H-indol-2-yl}methyl)spiro[cyclopropane-1,3′-pyrrolo[2,3-c]pyridin]-2′(1′H)-one], the pEC50 was 6.03. This pEC50 lies 0.22 log units lower than the previous one.

For the compound `CS(=O)(=O)CCn1c(CN2C(=O)C3(CC3)c3ccncc32)cc2cc(Cl)cc(F)c21` [Example 1-12, 1′-({5-Chloro-7-fluoro-1-[2-(methylsulfonyl)ethyl]-1H-indol-2-yl}methyl)spiro[cyclopropane-1,3′-pyrrolo[2,3-c]pyridin]-2′(1′H)-one], the negative logarithm of the EC50 (pEC50) is 8.47.

As for `Cc1ccc2c(c1)cc(CN1C(=O)C3(CC3)c3ccncc31)n2CCS(C)(=O)=O` [Example 1-13, 1′-({5-Methyl-1-[2-(methylsulfonyl)ethyl]-1H-indol-2-yl}methyl)spiro[cyclopropane-1,3′-pyrrolo[2,3-c]pyridin]-2′(1′H)-one], the pEC50 was 8.05.

`CS(=O)(=O)CCn1c(CN2C(=O)C3(CC3)c3ccncc32)cc2cnccc21` [Example 1-14, 1′-({1-[2-(Methylsulfonyl)ethyl]-1H-pyrrolo[3,2-c]pyridin-2-yl}methyl)spiro[cyclopropane-1,3′-pyrrolo[2,3-c]pyridin]-2′(1′H)-one] had a pEC50 of 7.11.

`CCS(=O)(=O)CCn1c(CN2C(=O)C3(CC3)c3ccncc32)cc2cc(Cl)ccc21` [Example 2-1, 1′-({5-Chloro-1-[2-(ethylsulfonyl)ethyl]-1H-indol-2-yl}methyl)spiro[cyclopropane-1,3′-pyrrolo[2,3-c]pyridin]-2′(1′H)-one] gave a negative-log EC50 (pEC50) of 8.12.

`CCS(=O)(=O)CCn1c(CN2C(=O)C3(CC3)c3ccncc32)cc2cc(Cl)cnc21` [Example 2-2, 1′-({5-Chloro-1-[2-(ethylsulfonyl)ethyl]-1H-pyrrolo[2,3-b]pyridin-2-yl}methyl)spiro[cyclopropane-1,3′-pyrrolo[2,3-c]pyridin]-2′(1′H)-one] gave a negative logarithm of the EC50 (pEC50) of 7.72. Compared with the last compound, the pEC50 is 0.40 log units lower.

Compound `CCS(=O)(=O)CCn1c(CN2C(=O)C3(CC3)c3cccnc32)cc2cc(Cl)ccc21` [Example 2-3, 1′-({5-Chloro-1-[2-(ethylsulfonyl)ethyl]-1H-indol-2-yl}methyl)spiro[cyclopropane-1,3′-pyrrolo[2,3-b]pyridin]-2′(1′H)-one] had a pEC50 of 6.61. Compared with the last compound, the pEC50 is 1.11 log units lower.

In the case of `CS(=O)(=O)CCn1c(CN2C(=O)C3(CCC3)c3ccncc32)cc2cc(Cl)cnc21` [Example 2-4, 1′-({5-Chloro-1-[2-(methylsulfonyl)ethyl]-1H-pyrrolo[2,3-b]pyridin-2-yl}methyl)spiro[cyclobutane-1,3′-pyrrolo[2,3-c]pyridin]-2′(1′H)-one], the pEC50 was 7.54. Against the preceding compound, the pEC50 is 0.93 log units higher.

`CS(=O)(=O)CCn1c(CN2C(=O)C3(CC3)c3cccnc32)cc2cc(Cl)ccc21` [Example 2-5, 1′-({5-Chloro-1-[2-(methylsulfonyl)ethyl]-1H-indol-2-yl}methyl)spiro[cyclopropane-1,3′-pyrrolo[2,3-b]pyridin]-2′(1′H)-one] had a pEC50 of 6.77.

As for `CS(=O)(=O)CCn1c(CN2C(=O)C3(CC3)c3cc(F)ccc32)cc2cc(Cl)cnc21` [Example 2-7, 1′-({5-Chloro-1-[2-(methylsulfonyl)ethyl]-1H-pyrrolo[2,3-b]pyridin-2-yl}methyl)-5′-fluorospiro[cyclopropane-1,3′-indol]-2′(1′H)-one], the pEC50 is 6.13. This pEC50 lies 0.64 log units lower than the previous one.

As to `CS(=O)(=O)CCn1c(CN2C(=O)C3(CCCC3)c3ccncc32)cc2cc(Cl)cnc21` [Example 2-8, 1′-({5-Chloro-1-[2-(methylsulfonyl)ethyl]-1H-pyrrolo[2,3-b]pyridin-2-yl}methyl)spiro[cyclopentane-1,3′-pyrrolo[2,3-c]pyridin]-2′(1′H)-one], the pEC50 was 6.04.

`CS(=O)(=O)CCn1c(CN2C(=O)C3(CC3)c3ccncc32)cc2nc(Cl)ccc21` [Example 2-9, 1′-({5-Chloro-1-[2-(methylsulfonyl)ethyl]-1H-pyrrolo[3,2-b]pyridin-2-yl}methyl)spiro[cyclopropane-1,3′-pyrrolo[2,3-c]pyridin]-2′(1′H)-one]: the negative logarithm of the EC50 (pEC50) is 7.20. This pEC50 lies 1.16 log units higher than the previous one.

`CS(=O)(=O)CCn1c(CN2C(=O)C3(CC3)c3cnccc32)cc2cc(Cl)ccc21` [Example 3-1, 1′-({5-Chloro-1-[2-(methylsulfonyl)ethyl]-1H-indol-2-yl}methyl)spiro[cyclopropane-1,3′-pyrrolo[3,2-c]pyridin]-2′(1′H)-one]: the negative-log EC50 (pEC50) is 6.70.

For `CS(=O)(=O)CCn1c(CN2C(=O)C3(CCCC3)c3ccncc32)cc2cc(Cl)ccc21` [Example 3-2, 1′-({5-Chloro-1-[2-(methylsulfonyl)ethyl]-1H-indol-2-yl}methyl)spiro[cyclopentane-1,3′-pyrrolo[2,3-c]pyridin]-2′(1′H)-one], the pEC50 is 6.54.

On to `CS(=O)(=O)CCn1c(CN2C(=O)C3(CC3)c3ccncc32)cc2cc(Cl)ccc21` [Example 3-3, 1′-({5-Chloro-1-[2-(methylsulfonyl)ethyl]-1H-indol-2-yl}methyl)spiro[cyclopropane-1,3′-pyrrolo[2,3-c]pyridin]-2′(1′H)-one], for which the pEC50 is 7.74.

The compound `CS(=O)(=O)CCCCn1c(CN2C(=O)C3(CC3)c3ccncc32)cc2cc(Cl)ccc21` [Example 4-1, 1′-({5-Chloro-1-[4-(methylsulfonyl)butyl]-1H-indol-2-yl}methyl)spiro[cyclopropane-1,3′-pyrrolo[2,3-c]pyridin]-2′(1′H)-one] had a pEC50 of 8.23. Compared with the last compound, the pEC50 is 0.49 log units higher.

Turning to `CS(=O)(=O)c1ccc(Cn2c(CN3C(=O)C4(CC4)c4ccncc43)cc3cc(Cl)ccc32)cc1` [Example 4-2, 1′-({5-Chloro-1-[4-(methylsulfonyl)benzyl]-1H-indol-2-yl}methyl)spiro[cyclopropane-1,3′-pyrrolo[2,3-c]pyridin]-2′(1′H)-one], the negative-log EC50 (pEC50) was 6.56.

`CS(=O)(=O)CCCn1c(CN2C(=O)C3(CC3)c3ccncc32)cc2cc(Cl)cnc21` [Example 4-3, 1′-({5-Chloro-1-[3-(methylsulfonyl)propyl]-1H-pyrrolo[2,3-b]pyridin-2-yl}methyl)spiro[cyclopropane-1,3′-pyrrolo[2,3-c]pyridin]-2′(1′H)-one] had a pEC50 of 7.42. Compared with the last compound, the pEC50 is 0.86 log units higher.

Compound `Cc1cnc2c(c1)cc(CN1C(=O)C3(CC3)c3ccncc31)n2CCS(C)(=O)=O` [Example 4-4, 1′-({5-Methyl-1-[2-(methylsulfonyl)ethyl]-1H-pyrrolo[2,3-b]pyridin-2-yl}methyl)spiro[cyclopropane-1,3′-pyrrolo[2,3-c]pyridin]-2′(1′H)-one] showed a negative-log EC50 (pEC50) of 7.19. This pEC50 lies 0.23 log units lower than the previous one.
